Test results: US10414739B2, “Compounds as inhibitors of the YAP/TAZ-TEAD interaction and their use in the treatment of malignant mesothelioma” (INVENTIVA, priority 2015, dated 2019)
pIC50: −log10 of the molar value.

Experiments:
[1] = test system: NCI-H2052 mesothelioma cell line; assay: Inhibition of malignant mesothelioma tumor cell growth (EdU proliferation); type: cell-based; settings: NCI-H2052 (NF2 mutated), 1% serum
Method: Inhibition of Malignant Mesothelioma Tumor Cell Growth
The tumor cell growth inhibitory activity of the YAP-TEAD interaction inhibitors was evaluated in NCI-H2052 mesothelioma cell line harboring a NF2 mutation. This cell line was selected based on its mutational status and the ability of a siRNA directed against YAP, TAZ or TEAD1-4 to inhibit cell proliferation. The nuclear localization of YAP at confluence was also taken into account. Based on these observations we were able to classify several “YAP dependent cells” where YAP is clearly nuclear and in which a cell growth inhibition is observed by using siRNA (NCI-H2052, SKOV-3, ACHN, A549) and the “YAP independent cells” where YAP is preferentially located in the cytoplasm and in which no inhibition of cell growth is observed by using a siRNA (SW620, Met-5a). […] After one day growth in the starvation medium, cells were incubated with compounds. The starting concentration was 30 μM and serial dilutions in DMSO and medium were performed until […] to achieve a final DMSO concentration of 0.5%. The cells were then allowed to grow for 3 days, and then, EdU (Invitrogen, Molecular Probe) was added in each well at a final concentration of 10 μM and the cells were returned to the incubator for additional 24 h. Starvation medium was removed and 100 μl of PFA 4% containing Hoechst dye was adding in each well to fix the cells. Plates were then incubated at room temperature for 15 minutes, washed twice with PBS and the cells were permeabilized by adding 100 μl per well of triton-100 containing 0.3% BSA. […] Image acquisition was performed using the ImageXpress Micro and analysed using the MetaXpress software (Molecular Device). Results were expressed as a percent of inhibition (%) of the cell proliferation values obtained with 0.5% DMSO treatment alone. The cellular response was determined by fitting the concentration response curves using a 3 parameter curve fit equation and determining the concentration that inhibited cell growth between 50% and 100%.

[2] = test system: YAP-TEAD interaction in co-transfected HEK293 cells; assay: Cell-based TEAD-GAL4 transactivation assay (luciferase reporter); settings: Homo sapiens, HEK293 co-transfected with TEAD1-Gal4, YAP mutant (S127A, S397A) and reporter, 24 h
Method: Effect of Compounds on the Cell-Based TEAD-GAL4 Transactivation Assay
(§1) To identify inhibitors of YAP-TEAD interaction, a transient transactivation assays was carried out into HEK293 cell line (HEK293 GripTite™ 293 MSR (Invitrogen R795-07)) using plasmids containing the full length TEAD1 sequences, the full length YAP mutant (S127A, S397A) and a luciferase gene reporter. All expression constructs were performed into pSG5 backbone plasmid in which the SV40 promoter was replaced by the CMV promoter. The TEAD1 construct was prepared by cloning the full length human TEAD1 cDNA in fusion with the Gal4 DNA Binding Domain (AA 1-148) into pSG5_CMV to create the TEAD1(FL)_hum_pSG5Gal4_CMV. The full length YAP mutant (S127A, S397A) was also cloned into pSG5_CMV to create the YAP(FL)_hum_pSG5_mutS127A_S397A_CMV. The reporter plasmid GAL4(5×RE)_TK(−105/+56)_pGL3-Basic contains 5 copies of the GAL4 responsive element (5′-TCGGAGGACAGTACTCC-3′) upstream of the thymidine kinase (TK) promoter (−105/+56) inserted in a pGL3-Basic vector. To evaluate the selectivity of our compounds in blocking the YAP-TEAD interaction, a counter-screening protein-protein interaction transactivation assays was also established. Briefly, two other expression plasmids, the pBD-P53 which express the P53 (AA 72-390) in fusion with Gal4 and the pAD-SV40T which express the SV40 large T antigen (AA 84-708,AgT), were created. […] Twenty-four hours later, the luciferase activity was determined after addition of 100 μl of Steady Glo™ luciferase assay system (Promega E2550) according to the manufacturer's directions. Luciferase activity in cell extracts is measured by reading luminescence using the Envision device.
The cellular response was determined by fitting the concentration response curves using a 3-parameter curve fit equation and determining the concentration that inhibited the luciferase activity by 50%.

[3] = test system: P53 / SV40 large T antigen (AgT) interaction in HEK293 cells; assay: Counter-screening protein-protein interaction transactivation assay (P53+AgT); type: cell-based; settings: HEK293, same conditions as TEAD-GAL4 assay
Method: as §1, with “created. HEK293 cells were seeded at 5×10^4 cells/well in 96 well plates (assay plates) in DMEM medium containing 4.5 g/L D-glucose, 10% high inactivated (HI) fetal bovine serum 1% Glutamax, 1% non-essential amino acid and 1% sodium pyruvate and 0.5% penicillin/streptomycin 37° C. in a humidified atmosphere of 8% CO2.” for “created.”

[4] = target: T1, YAP-TEAD interaction (human YAP2-His6 (50-114) / human TEAD1-GST (209-426)) (Homo sapiens, UniProt P28347); assay: YAP-TEAD AlphaLISA assay; type: binding; settings: for Emax: 2 h, maximal % inhibition, read-out: Max Act.; for Emax / pIC50: YAP-TEAD AlphaLISA; for pIC50: 2 h equilibration at room temperature
T1 construct: GST-TEAD1 (209-426) produced in E. coli; made in house; host or cells: E. coli
Method: YAP-TEAD AlphaLISA Assay for IC50 Value Determination.
YAP-TEAD binding and inhibition was assessed by monitoring the engagement of YAP2 peptide (human YAP2-His6 (50-114) produced in E. coli) with TEAD (human TEAD1-GST (GST-TEAD1 (209-426) produced in E. coli) using the AlphaLisa technology (Perkin-Elmer). Specifically, in a 384 well (Axygen) 5 μl of compounds were dispensed in 100% DMSO following a semi log serial dilution, with a top concentration of […] (10 concentrations). A ‘3 partners solution’ was prepared by mixing AlphaScreen Glutathione Donor beads 15 μg/ml (PerkinElmer), Anti-6×His AlphaLisA Acceptor beads 15 μg/ml (PerkinElmer) and Human YAP2 9 nM in 100 mM NaCl, 25 mM Hepes, 0.1% BSA, 0.5% NoNidet®P40 buffer. In the 384 assay plate (Proxiplate, Perkin-Elmer)) 2 μl of compound at each concentration, 6 μl of buffer, 6 μl of hTEAD1-GST 9 nM and 6 μl of ‘3 partner solution’ were mixed. After 2 h equilibration at room temperature in the dark the plates were read on an Envision instrument (Excitation @ 680 nm/Emission @ 570 nm, Perkin Elmer).
Results were expressed as % inhibition=100×((HighControl−Cpd)/(HighControl−LowControl)), were High control is the maximum response obtained with all components and Low control is the basal response obtained with all components without GST-Tead1.
Cpd is the response obtained for test compounds.
IC50 (half maximal inhibitory concentration) was determined by fitting the concentration response curves using a 3-parameter curve fit equation and determining concentration corresponding to 50% inhibition.

SW620 cell line = assay: Cell proliferation in YAP-independent cell line (EdU); type: cell-based
Method: The tumor cell growth inhibitory activity of the YAP-TEAD interaction inhibitors was evaluated in NCI-H2052 mesothelioma cell line harboring a NF2 mutation. This cell line was selected based on its mutational status and the ability of a siRNA directed against YAP, TAZ or TEAD1-4 to inhibit cell proliferation. The nuclear localization of YAP at confluence was also taken into account. Based on these observations we were able to classify several “YAP dependent cells” where YAP is clearly nuclear and in which a cell growth inhibition is observed by using siRNA (NCI-H2052, SKOV-3, ACHN, A549) and the “YAP independent cells” where YAP is preferentially located in the cytoplasm and in which no inhibition of cell growth is observed by using a siRNA (SW620, Met-5a). […] After one day growth in the starvation medium, cells were incubated with compounds. The starting concentration was 30 μM and serial dilutions in DMSO and medium were performed until […] to achieve a final DMSO concentration of 0.5%. The cells were then allowed to grow for 3 days, and then, EdU (Invitrogen, Molecular Probe) was added in each well at a final concentration of 10 μM and the cells were returned to the incubator for additional 24 h. Starvation medium was removed and 100 μl of PFA 4% containing Hoechst dye was adding in each well to fix the cells. Plates were then incubated at room temperature for 15 minutes, washed twice with PBS and the cells were permeabilized by adding 100 μl per well of triton-100 containing 0.3% BSA. After 20 minutes cells were washed with PBS and the EdU detection was performed according to the instructions of the manufacturer. Image acquisition was performed using the ImageXpress Micro and analysed using the MetaXpress software (Molecular Device). Results were expressed as a percent of inhibition (%) of the cell proliferation values obtained with 0.5% DMSO treatment alone. The cellular response was determined by fitting the concentration response curves using a 3 parameter curve fit equation and determining the concentration that inhibited cell growth between 50% and 100%.

T1 sequence (P28347 209-426): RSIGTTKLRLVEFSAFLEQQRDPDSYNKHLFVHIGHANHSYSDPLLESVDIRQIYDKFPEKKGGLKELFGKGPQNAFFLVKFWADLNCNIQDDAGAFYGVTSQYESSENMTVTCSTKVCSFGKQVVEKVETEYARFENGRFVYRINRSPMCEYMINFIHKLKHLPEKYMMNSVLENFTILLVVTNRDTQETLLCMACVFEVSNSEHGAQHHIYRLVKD

COc1cc(/C=N/N(C)C2=NS(=O)(=O)c3ccccc32)ccc1O [Example 1, 4-[(E)-[(1,1-dioxo-1,2-benzothiazol-3-yl)-methyl-hydrazono]methyl]-2-methoxy-phenol]
melting point: 218 °C | inhibition of cell proliferation [1]: inhibited | inhibition at 30 µM [2]: 50 to 75% | inhibitory effect in counter screening assay (P53+AgT) [3]: no inhibitory effect was observed | Emax [4]: 92% | pIC50 [4]: 6.05 | inhibition at 0.886 µM ([4]; at 0.886 μM (so in the source)): 92% | effect on cell proliferation (SW620 cell line): without showing any effect

COc1cc(/C=N/N(CCO)C2=NS(=O)(=O)c3ccccc32)ccc1O [Example 2, 4-[(E)-[(1,1-dioxo-1,2-benzothiazol-3-yl)-(2-hydroxyethyl)-hydrazono]methyl]-2-methoxy-phenol]
inhibition of cell proliferation [1]: inhibited | inhibition at 30 µM [2]: 50 to 75% | inhibitory effect in counter screening assay (P53+AgT) [3]: no inhibitory effect was observed | Emax [4]: 93% | pIC50 [4]: 6.02 | effect on cell proliferation (SW620 cell line): without showing any effect

COCCN(/N=C/c1ccc(O)c(OC)c1)C1=NS(=O)(=O)c2ccccc21 [Example 7, 4-[(E)-[(1,1-dioxo-1,2-benzothiazol-3-yl)-(2-methoxyethyl)hydrazono]-methyl]-2-methoxy-phenol]
inhibition of cell proliferation [1]: inhibited | inhibition at 30 µM [2]: 50 to 75% | inhibitory effect in counter screening assay (P53+AgT) [3]: no inhibitory effect was observed | Emax [4]: 94% | pIC50 [4]: 5.34 | effect on cell proliferation (SW620 cell line): without showing any effect
